Test results: publication PMC6161602, “Synthesis and characterisation of (Z)-styrylbenzene derivatives as potential selective anticancer agents” (Journal of Enzyme Inhibition and Medicinal Chemistry, 2018)

Columns and labels:
[1] = system: MCF-7 breast cancer cell; experiment: MTT cell growth inhibition assay, MCF-7; type: cell-based, human; conditions: MTT, 48 h incubation, MCF-7
Source text: (§1) All human cell lines were used in this study. MGC-803 late-stage differentiation gastric cancer cell, A549 lung cancer cell, HepG2 hepatoma cell, AGS gastric cancer cell, BEL-7402 liver cancer cell, HCT-116 colorectal cancer cell, HeLa cervical cancer cell, SGC-7901 early differentiation gastric cancer cell, L-02 normal liver cell, MCF-7 breast cancer cell, and MCF-10A normal breast cell were initially purchased from American Type Culture Collection (ATCC, Manassas, VA, USA). RPMI-1640 media, Dulbecco’s modified Eagle’s medium (DMEM), and foetal bovine serum (FBS) were provided from Gibco Company (Grand Island, NY, USA). The cells were maintained in DMEM or RPMI-1640, supplemented with 10% FBS, 100 IU/mL penicillin and […] (Grand Island, NY, USA), and at 37 °C in a humidified atmosphere containing 5% CO2.
(§2) Cells were plated in 96-well plates at a density of 30–40% to ensure exponential growth throughout the experimental period, and then allowed to adhere for 1 day[21]. Next, the cells were treated with four serial concentrations (1, 10, 50, and 100 µM) of each compound. Taxol, CA-4, and CA-4P (phosphorylated form of CA-4) were used as positive controls. After 48 h incubation, MTT solution was added to each well at a final concentration of 2 mg/mL, and incubated for an additional 4 h. Next, the MTT solution was removed and 150 µL of dimethyl sulphoxide (DMSO)/well was added (Sigma-Aldrich, St Louis, MO, USA). The plates were shaken vigorously at RT to ensure complete solubilisation, and absorption at 492 nm was determined.
(§3) According to standard protocol, preliminary in vitro anti-proliferative activities of the synthesised compounds were evaluated by MTT assay, using nine human cancer cell lines (MGC-803, A549, HepG2, AGS, BEL-7402, HCT116, HeLa, SGC-7901, and MCF-7) and two normal human cell lines (L-02 and MCF-10A), and compared with those of CA-4, CA-4P, and taxol.

[2] = system: L-02 normal liver cell; experiment: MTT cell growth inhibition assay, L-02 (normal); type: cell-based, human; conditions: 48 h incubation, L-02 normal cells
Source text: as §1, §2, §3

[3] = system: A549 lung cancer cell; experiment: MTT cell growth inhibition assay, A549; type: cell-based, human; conditions: MTT, 48 h incubation, A549
Source text: as §1, §2, §3

[4] = system: BEL-7402 cells; experiment: MTT cell growth inhibition assay, BEL-7402; type: cell-based, human; conditions: MTT, 48 h incubation, Bel-7402
Source text: as §1, §2, §3

[5] = system: MGC-803 cells; experiment: MTT cell growth inhibition assay, MGC-803; type: cell-based, human; conditions: MTT, 48 h incubation, MGC-803
Source text: as §1, §2, §3

[6] = system: MCF-10A normal breast cell; experiment: MTT cell growth inhibition assay, MCF-10A (normal); type: cell-based, human; conditions: 48 h incubation, MCF-10A normal cells
Source text: as §1, §2, §3

[7] = system: HCT116 cells; experiment: MTT cell growth inhibition assay, HCT116; type: cell-based, human; conditions: MTT, 48 h incubation, HCT116
Source text: as §1, §2, §3

[8] = system: SGC-7901 early differentiation gastric cancer cell; experiment: MTT cell growth inhibition assay, SGC-7901; type: cell-based, human; conditions: 48 h incubation
Source text: as §1, §2, §3

[9] = system: HepG2 hepatoma cell; experiment: MTT cell growth inhibition assay, HepG-2; type: cell-based, human; conditions: MTT, 48 h incubation, HepG-2
Source text: as §1, §2, §3

[10] = system: AGS cells; experiment: MTT cell growth inhibition assay, AGS; type: cell-based, human; conditions: MTT, 48 h incubation, AGS
Source text: as §1, §2, §3

[11] = system: HeLa cervical cancer cell; experiment: MTT cell growth inhibition assay, HeLa; type: cell-based, human; conditions: 48 h incubation
Source text: as §1, §2, §3

Row | Compound | IC50 ([1]; Homo sapiens, MCF7) [µM] | IC50 ([2]; Homo sapiens) [µM] | IC50 ([3]; Homo sapiens) [µM] | IC50 ([4]; Homo sapiens) [µM] | IC50 ([5]; Homo sapiens, MGC-803, 48 h) [µM] | IC50 ([6]; Homo sapiens) [µM] | IC50 ([7]; Homo sapiens, HCT-116) [µM] | IC50 ([8]; Homo sapiens) [µM] | melting point [°C] | IC50 ([9]; Homo sapiens, HepG2) [µM] | IC50 ([10]; Homo sapiens) [µM] | IC50 ([11]; Homo sapiens) [µM] | other results
1 | Cc1ccc(/C=C(\C#N)c2ccc(C)cc2)cc1 [Compound 13a, (Z)-2,3-Di-p-tolylacrylonitrile] | > 100 | > 100 | > 100 | > 100 | > 100 | > 100 | > 100 | > 100 | 68 to 70 | > 100 | 27.9 ± 5.84 | > 100 | –
2 | CCc1ccc(/C=C(\C#N)c2ccc(C)cc2)cc1 [Compound 13b, (Z)-3-(4-Ethylphenyl)-2-(p-tolyl)acrylonitrile] | 35 ± 14.8 | > 100 | > 100 | > 100 | > 100 | 85.7 ± 3.12 | > 100 | > 100 | 112 to 114 | > 100 | 26.5 ± 3.89 | > 100 | –
3 | COc1cc(/C=C(\C#N)c2ccc(C)cc2)cc(OC)c1OC [Compound 13c, (Z)-2-(p-Tolyl)-3-(3,4,5-trimethoxyphenyl)acrylonitrile] | 33.9 ± 7.3 | > 100 | > 100 | 77.3 ± 0.26 | > 100 | > 100 | 79.2 ± 5.21 | > 100 | 135 to 137 | > 100 | 66.2 ± 3.65 | > 100 | –
4 | Cc1ccc(/C(C#N)=C/c2ccccc2)cc1 [Compound 13d, (Z)-3-Phenyl-2-(p-tolyl)acrylonitrile] | > 100 | > 100 | > 100 | > 100 | 89.2 ± 3.2 | > 100 | > 100 | > 100 | 145 to 147 | > 100 | > 100 | > 100 | –
5 | Cc1ccc(/C(C#N)=C/c2cccs2)cc1 [Compound 14a, (Z)-3-(Thiophen-2-yl)-2-(p-tolyl)acrylonitrile] | > 100 | > 100 | > 100 | > 100 | > 100 | > 100 | > 100 | > 100 | 128 to 130 | > 100 | > 100 | > 100 | –
6 | Cc1ccc(/C(C#N)=C/c2ccccn2)cc1 [Compound 14b, (Z)-3-(Pyridin-2-yl)-2-(p-tolyl)acrylonitrile] | > 100 | > 100 | > 100 | > 100 | > 100 | > 100 | > 100 | > 100 | 102 to 104 | > 100 | > 100 | > 100 | –
7 | (Z)-3-(Naphthalen-1-yl)-2-(3,4,5-trimethoxyphenyl)acrylonitrile [Compound 7c] | – | – | – | – | – | – | – | – | – | – | – | – | IC50 [1]: 2.83 ± 0.35 µM; IC50 [2]: 8.21 ± 0.051 µM; IC50 [3]: > 100 µM; IC50 [4]: 2.53 ± 0.12 µM; IC50 [5]: 3.45 ± 2.11 µM; IC50 [6]: 1.03 ± 0.44 µM; IC50 [7]: 4.58 ± 0.42 µM; IC50 [8]: > 100 µM; IC50 [9]: > 100 µM; IC50 [10]: 3.51 ± 0.25 µM; IC50 [11]: > 100 µM
